EC50 data for 56 compounds are collected here from patent US8796460B2, “Compounds for inhibiting KSP kinesin activity” (Mercky Sharp & Dohme Corp., priority 2007, dated 2014).

For the first test, the system named is HCT116 colon cancer cells. The test can be described thus: KSP Cellular Assay (percent of cells staining positive for Phos-Histone H3 / Phos-MPM2). The test is classed as cell-based. The settings on record: Homo sapiens, HCT-116, 16 h, Table 401; HCT116 cells, 16 hours with drug; read-out: ED50 (nM) Range. As to the method:
HCT116 colon cancer cells were grown in DMEM:F12 media with 10% heat inactivated FBS at 37 degrees with 5% CO2. Cells were plated at 7,500 cells per well in PDL coated 384-well tissue culture plates. 6 hours later media was removed and new media containing drug was added. Cells were incubated with drug for 16 hours. All further steps were performed at room temperature in the dark. Cells were fixed with 25 ul/well Prefer fixation solution plus 250 nM Hoechst dye and incubated for 30 minutes. The fixation solution was removed and cells were washed with PBS. Cells were then permeabilized with 25 ul/well 0.2% Triton-X in PBS and incubated for 10 minutes. Cells were washed with PBS and then incubated with 25 ul/well PBS containing 3% FBS for 30 minutes. Cells were then stained overnight at 4 degrees with 25 ul/well antibody solution in PBS plus 3% FBS. Antibodies used were Phos-Histone H3 (ser10)-Alexa Flur 488 Conjugate and Phos-MPM2 Texas Red Conjugate. Cells were washed with PBS and then immunofluorescence images captured with HT Pathway microscope. The percent of cells staining positive was calculated and EC50 values for the compounds of the invention that were tested were determined using Excel XLfit.
EC50 Determinations: Dose-response curves were plotted from inhibition data generated each in duplicate, from 8 point serial dilutions of inhibitory compounds. Concentration of compound was plotted against enzyme activity (OD reading). To generate EC50 values, the dose-response curves were then fitted to a standard sigmoidal curve and EC50 values were derived by nonlinear regression analysis.
As for `CN1CCC(C(=O)N2N=C(c3cc(F)ccc3F)SC23CCc2ccccc23)CC1` (centres unmarked) [compound 421], the EC50 is above 1000 nM. On the same count and under the same terms, then `O=C(C1CCNCC1)N1N=C(c2cc(F)ccc2F)SC12CCc1ccccc12` (centres unmarked) [compound 422], with above 1000 nM. The same measure, in the same setting: as for `O=C([C@@H]1CCCN1)N1N=C(c2cc(F)ccc2F)SC12CCc1ccccc12` (some centres unmarked) [compound 423], the figure is above 1000 nM. Same read-out and setting: as for `CC(C)[C@H](O)C(=O)N1N=C(c2cc(F)ccc2F)SC12CCCc1ccsc12` (some centres unmarked) [compound 424], the figure is above 1000 nM; as for `O=C([C@@H]1CCCCN1)N1N=C(c2cc(F)ccc2F)SC12CCCc1ccsc12` (some centres unmarked) [compound 425], above 1000 nM.

Consider `O=C(C1CCCNC1)N1N=C(c2cc(F)ccc2F)SC12CCCc1ccsc12` (centres unmarked) [compound 426], for which the EC50 is above 1000 nM. On to `O=C([C@@H]1CCCN1)N1N=C(c2cc(F)ccc2F)SC12CCCc1ccsc12` (some centres unmarked) [compound 427], for which the EC50 is above 1000 nM. Same read-out and setting: as for `N[C@H](C(=O)N1N=C(c2cc(F)ccc2F)SC12CCCc1ccsc12)C1CC1` (some centres unmarked) [compound 428], the figure is above 1000 nM; as for `CN1CCC(C(=O)N2N=C(c3cc(F)ccc3F)SC23CCCc2ccsc23)CC1` (centres unmarked) [compound 429], above 1000 nM; as for `CC(C)(C)C(=O)N1N=C(c2cc(F)ccc2F)SC12CCOc1ccccc12` (centres unmarked) [compound 430], above 1000 nM. Consider `O=C(c1cccnc1)N1N=C(c2cc(F)ccc2F)SC12CCOc1ccccc12` (centres unmarked) [compound 431], for which the EC50 was above 1000 nM.

Regarding `O=C(c1ccccn1)N1N=C(c2cc(F)ccc2F)SC12CCOc1ccccc12` (centres unmarked) [compound 432], the EC50 is above 1000 nM. `NCCC(=O)N1N=C(c2cc(F)ccc2F)SC12CCOc1ccccc12` (centres unmarked) [compound 433]: the EC50 lay in the range of 500 to 1000 nM. As for `NCCCC(=O)N1N=C(c2cc(F)ccc2F)SC12CCOc1ccccc12` (centres unmarked) [compound 434], the EC50 was at most 500 nM. On to `CO[C@@H](C)C(=O)N1N=C(c2cc(F)ccc2F)SC12CCOc1ccccc12` (some centres unmarked) [compound 435], for which the EC50 was in the range of 500 to 1000 nM. As to `C[C@H](O)C(=O)N1N=C(c2cc(F)ccc2F)SC12CCc1ccccc12` (some centres unmarked) [compound 436], the EC50 was at most 500 nM. Still for that read-out and setting: then `NCCCC(=O)N1N=C(c2cc(F)ccc2F)SC12CCc1ccccc12` (centres unmarked) [compound 437], with at most 500 nM; and `CN(C)CCCC(=O)N1N=C(c2cc(F)ccc2F)SC12CCc1ccccc12` (centres unmarked) [compound 438], with at most 500 nM; and `NC1CCC(C(=O)N2N=C(c3cc(F)ccc3F)SC23CCc2ccccc23)CC1` (centres unmarked) [compound 439], with 500 to 1000 nM. Same read-out and setting: as for `NC1CCC(C(=O)N2N=C(c3cc(F)ccc3F)SC23CCc2ccccc23)C1` (centres unmarked) [compound 440], the figure is at most 500 nM; as for `COC(C)C(=O)N1N=C(c2cc(F)ccc2F)SC12CCc1ccccc12` (centres unmarked) [compound 441], at most 500 nM; as for `NCCC(=O)N1N=C(c2cc(F)ccc2F)SC12CCc1ccccc12` (centres unmarked) [compound 442], at most 500 nM. With `NCCCCC(=O)N1N=C(c2cc(F)ccc2F)SC12CCc1ccccc12` (centres unmarked) [compound 443], the EC50 was at most 500 nM. Same read-out and setting: as for `NC(=O)CCC(=O)N1N=C(c2cc(F)ccc2F)SC12CCc1ccccc12` (centres unmarked) [compound 444], the figure is at most 500 nM. Consider `O=C(CC1CCCNC1)N1N=C(c2cc(F)ccc2F)SC12CCc1ccccc12` (centres unmarked) [compound 446], for which the EC50 fell in the range of 500 to 1000 nM. For `O=C(CC1CCNCC1)N1N=C(c2cc(F)ccc2F)SC12CCc1ccccc12` (centres unmarked) [compound 447], the EC50 was at most 500 nM. In the case of `O=C(CCC1CCCNC1)N1N=C(c2cc(F)ccc2F)SC12CCc1ccccc12` (centres unmarked) [compound 448], the EC50 is above 1000 nM. Same read-out and setting: then `O=C(Cc1ccncc1)N1N=C(c2cc(F)ccc2F)SC12CCc1ccccc12` (centres unmarked) [compound 449], with at most 500 nM. Same read-out and setting: then `O=C(Cc1cccnc1)N1N=C(c2cc(F)ccc2F)SC12CCc1ccccc12` (centres unmarked) [compound 450], with 500 to 1000 nM; and `O=C(CC1CCNC1)N1N=C(c2cc(F)ccc2F)SC12CCc1ccccc12` (centres unmarked) [compound 451], with at most 500 nM; and `CC(N)CCC(=O)N1N=C(c2cc(F)ccc2F)SC12CCc1ccccc12` (centres unmarked) [compound 452], with at most 500 nM. Same read-out and setting: then `CNCCCC(=O)N1N=C(c2cc(F)ccc2F)SC12CCc1ccccc12` (centres unmarked) [compound 453], with above 500 nM; and `O=C(CCCN1CCCC1)N1N=C(c2cc(F)ccc2F)SC12CCc1ccccc12` (centres unmarked) [compound 454], with at most 500 nM. In the case of `O=C1CCCN1CCCC(=O)N1N=C(c2cc(F)ccc2F)SC12CCc1ccccc12` (centres unmarked) [compound 455], the EC50 lay in the range of 500 to 1000 nM.

For `O=C(CCCN1CCCCC1)N1N=C(c2cc(F)ccc2F)SC12CCc1ccccc12` (centres unmarked) [compound 456], the EC50 is at most 500 nM.

For the compound `O=C(CCCN1CCOCC1)N1N=C(c2cc(F)ccc2F)SC12CCc1ccccc12` (centres unmarked) [compound 457], the EC50 was at most 500 nM. Same read-out and setting: as for `NCCCC(=O)N1N=C(c2cc(F)ccc2F)S[C@]12CCOc1ccccc12` [compound 458], the figure is at most 500 nM. On to `NCCCC(=O)N1N=C(c2cc(F)ccc2F)S[C@@]12CCOc1ccccc12` [compound 459], for which the EC50 was above 500 nM. On the same count and under the same terms, as for `O=C(CC1CNC1)N1N=C(c2cc(F)ccc2F)SC12CCc1ccccc12` (centres unmarked) [compound 460], the figure is at most 500 nM; as for `O=C(CCC1CCCCN1)N1N=C(c2cc(F)ccc2F)SC12CCc1ccccc12` (centres unmarked) [compound 461], above 500 nM; as for `O=C(CCC1CCNCC1)N1N=C(c2cc(F)ccc2F)SC12CCc1ccccc12` (centres unmarked) [compound 462], at most 500 nM. For `CN(C)CCCC(=O)N1N=C(c2cc(F)ccc2F)SC12Cc1ccccc12` (centres unmarked) [compound 463], the EC50 is at most 500 nM.

`O=C(C1CC1)N1N=C(c2cc(F)ccc2F)SC12CCOc1ccccc12` (centres unmarked) [compound 464]: the EC50 lay within 500 to 1000 nM.

Regarding `CCC(=O)N1N=C(c2cc(F)ccc2F)SC12CCOc1ccccc12` (centres unmarked) [compound 465], the EC50 was at most 500 nM.

Take `COCC(=O)N1N=C(c2cc(F)ccc2F)SC12CCOc1ccccc12` (centres unmarked) [compound 466]: the EC50 was above 1000 nM. Still for that read-out and setting: as for `CC(C)C(=O)N1N=C(c2cc(F)ccc2F)SC12CCOc1ccccc12` (centres unmarked) [compound 467], the figure is above 1000 nM; as for `CC(C)CC(=O)N1N=C(c2cc(F)ccc2F)SC12CCOc1ccccc12` (centres unmarked) [compound 468], above 1000 nM. Turning to `NCC(=O)N1N=C(c2cc(F)ccc2F)SC12CCOc1ccccc12` (centres unmarked) [compound 469], the EC50 was above 1000 nM.

With `O=C(N1N=C(c2cc(F)ccc2F)SC12CCOc1ccccc12)C(F)(F)F` (centres unmarked) [compound 470], the EC50 was above 1000 nM.

For `O=C(C(F)F)N1N=C(c2cc(F)ccc2F)SC12CCOc1ccccc12` (centres unmarked) [compound 471], the EC50 was at most 500 nM. Same read-out and setting: as for `COCCOCC(=O)N1N=C(c2cc(F)ccc2F)SC12CCOc1ccccc12` (centres unmarked) [compound 472], the figure is above 1000 nM; as for `O=C(CO)N1N=C(c2cc(F)ccc2F)SC12CCOc1ccccc12` (centres unmarked) [compound 473], 500 to 1000 nM; as for `O=C(c1ccncc1)N1N=C(c2cc(F)ccc2F)SC12CCOc1ccccc12` (centres unmarked) [compound 474], above 1000 nM. On the same count and under the same terms, as for `CN(C)CCCC(=O)N1N=C(c2cc(F)ccc2F)SC12CCOc1ccccc12` (centres unmarked) [compound 475], the figure is at most 500 nM. Take `N[C@H]1CC[C@@H](C(=O)N2N=C(c3cc(F)ccc3F)SC23CCOc2ccccc23)C1` (some centres unmarked) [compound 476]: the EC50 is above 500 nM.

The same test, now with this note: Table 401; HCT116 cells, 16 hours with drug; read-out: ED50 (nM) Range.
Turning to `NC1CCC(C(=O)N2N=C(c3cc(F)ccc3F)SC23CCc2ccccc23)CC1` (centres unmarked) [compound 445], the EC50 is above 1000 nM.
